From patent US7368267B2, “Method for the oxidation of aromatic compounds” (BASF Aktiengesellschaft, priority 2001, dated 2008)
Like-named read-outs stand apart in the source and are kept apart here.

How the values were obtained:
[1] = Partition coefficients in DOP/M9 (glucose) biphasic system; type: physicochemical
[2] = tested on: E. coli; assay: Toxic / inhibitory effect of substrate, products and organic phase on biomass growth of the cells; conditions: in the aqueous phase
[3] = tested on: E. coli
[4] = tested on: E coli; conditions: at a pH of 7; cited from earlier work
[5] = concentration in organic phase (dioctyl phthalate) relative to aqueous phase (M9 medium, glucose), triplicate

Row | Molecule | Partition coefficient [1, 5] | concentration which inhibits biomass growth [2] [µM] | other results
1 | Cc1ccc(C=O)cc1C [3,4-Dimethylbenzaldehyde, 3,4-dimethylbenzaldehyde] | 906 ± 20 | 1.812e+06 | 
2 | Cc1ccc(C(=O)O)cc1C [3,4-Dimethylbenzoic acid, 3,4-dimethylbenzoic acid] |  |  | concentration which inhibits biomass growth [3]: 16000 µM; Partition coefficient [1]: 0.188 ± 0.005
3 | Cc1ccc(CO)cc1C [3,4-Dimethylbenzyl alcohol, 3,4-dimethylbenzyl alcohol] | 50 ± 3 | 100000 | concentration above which it has a toxic effect on the cells [2]: > 100000 µM
4 | CC(=O)O [acetic acid] |  |  | concentration with inhibitory effect on cell growth [4]: 5000 µg/mL
5 | pseudocumene (trimethylbenzene) | 24300 ± 1500 |  | concentration above which it is toxic to the cells [2]: 15-25%
